# Experimental data reported in patent publication US4424220A, “Treatment of giardiasis and trichomoniasis” (priority 1982, dated 1984).
# Where two headings read alike, the source gives them in different places.
# Assays:
# [1] = cited from earlier work
# Giardia lamblia [2] = settings: humans; background, The New York Times, June 10, 1980; cited from earlier work
# Giardia lamblia [3] = test: In vitro anti-Giardia lamblia activity (viable organisms counted by hemacytometer, 50% inhibition of growth); type: cell-based; settings: Giardia duodenalis, read-out: Anti-G. lamblia ED50
# Method: About 1.0-2.0 ml of a nutrient medium, for example, the modified Diamond's TPS medium at pH 7.05, together with about 10% by volume of heat-inactiviated serum and about 1% by volume of antibiotic-antimycotic solution is placed in each well of a multiwell plate. To this mixture, an aliquot of a suspension of G. lamblia cells containing about 10^6 organisms is added. Subsequently, each well is inoculated with a known concentration of one of the active compounds. The multiwell plate containing the individual culture samples is incubated under anaerobic conditions at about 37° C. for about 16-24 hrs. The number of viable cells remaining in each well are then counted, such as with a hemacytometer. […]
# In each well of a multiwell plate is placed 1.4 ml of media mix containing Diamond's TPS medium (see Table 2) at pH 7.05, 10% by volume of heat-inactivated fetal bovine serum, and 1% by volume of an antibiotic-antimycotic solution (see Table 3). […] The cells are resuspended in a small volume of the Diamond's medium, counted, and each well inoculated with approximately 10^6 organisms. […] After 24 hours of incubation each well is mixed and counted for viable organisms using a hemacytometer. The percentage of survival is determined by comparing the treated wells to controls treated with dimethylsulfoxide. […]
# T. vaginalis = test: Anti-T. vaginalis activity; type: cell-based, Trichomonas vaginalis; settings: procedure of Example 2; refers to Table 1
# T. foetus = test: In vitro anti-Trichomonas foetus activity (50% inhibition of growth); type: cell-based, Trichomonas foetus KV1; settings: for IC50: Tritrichomonas foetus, read-out: Anti-T. foetus ED50
# Method: The activity of these compounds against Giardia lamblia and Trichomonas foetus are shown by the following test:
# About 1.0-2.0 ml of a nutrient medium, for example, the modified Diamond's TPS medium at pH 7.05, together with about 10% by volume of heat-inactiviated serum and about 1% by volume of antibiotic-antimycotic solution is placed in each well of a multiwell plate. To this mixture, an aliquot of a suspension of G. lamblia cells containing about 10^6 organisms is added. Subsequently, each well is inoculated with a known concentration of one of the active compounds. The multiwell plate containing the individual culture samples is incubated under anaerobic conditions at about 37° C. for about 16-24 hrs. The number of viable cells remaining in each well are then counted, such as with a hemacytometer. The percentage of survival is determined by comparison with controls inoculated with DMSO (dimethylsulfoxide) and the effective concentration (in parts per million) for 50% inhibition of growth (ED50) is determined. It is established that the lower the number of the value of ED50, the higher the activity of the active compound.
# In each well of a multiwell plate is placed 1.4 ml of media mix containing Diamond's TPS medium (see Table 2) at pH 7.05, 10% by volume of heat-inactivated fetal bovine serum, and 1% by volume of an antibiotic-antimycotic solution (see Table 3). A suspension of Giardia lamblia is centrifuged at 2,500 xg. for 6 minutes. The cells are resuspended in a small volume of the Diamond's medium, counted, and each well inoculated with approximately 10^6 organisms. A stock solution of fluorouracil is made at a concentration of 150 μg/ml. The wells are then inoculated with various concentrations of the drug. The plates are incubated for 24 hours at 37° C. in an anaerobic Gas Pak jar. After 24 hours of incubation each well is mixed and counted for viable organisms using a hemacytometer. The percentage of survival is determined by comparing the treated wells to controls treated with dimethylsulfoxide. […]
smiles,measurement,setting,value
CCN(CC)CCCC(C)Nc1c2ccc(Cl)cc2nc2ccc(OC)cc12 (stereo not drawn) [Atabrine],adverse side effects,[1]; in vivo,known to cause adverse side effects
same,treatment of giardiasis infection,Giardia lamblia [2],successfully treated
O=C1OCCN1N=Cc1ccc([N+](=O)[O-])o1 [furazolidione],adverse side effects,"[1]; humans, background, The New York Times, June 10, 1980",known to cause adverse side effects
same,treatment of giardiasis infection,Giardia lamblia [2],successfully treated
"Cc1ncc([N+](=O)[O-])n1CCO [Flagyl, metronidazole]",adverse side effects,[1]; in vivo,known to cause adverse side effects
same,treatment of giardiasis infection,Giardia lamblia [2],successfully treated
"[O-][n+]1ccnc(O)c1 [emimycin, 2-hydroxypyrazine-4-oxide]",IC50,"Giardia lamblia [3]; in vitro, effective concentration for 50% inhibition of growth, about 10^6 organisms per well, 37° C., anaerobic, 16-24 hrs (Example 1: 24 hours), controls with DMSO",22 µg/mL
same,anti-T. vaginalis activity (in words),T. vaginalis,active anti-T. vaginalis agents
same,IC50,"T. foetus; in vitro, 50% inhibition of growth, T. foetus KV1 in Example 2, 37° C., 24 hours",< 1 µg/mL
"O=c1[nH]cc(F)c(=O)[nH]1 [fluorouracil, 5-fluoro-2,4-(1H,3H)pyrimidenedione]",IC50,Giardia lamblia [3],100 µg/mL
same,IC50,T. foetus; 24 h,3 µg/mL
same,anti-T. foetus activity (in words),"T. foetus; in vitro, T. foetus KV1, 37° C., 24 hours",effective anti-T. foetus agent
